Data published in patent US20050209271A1, “Form of renzapride hydrochloride hydrate and uses thereof” (priority 2003, published 2005).

Columns and labels:
Assay type in all cases: physicochemical
[1] = Intrinsic dissolution rate (IDR) of compressed discs in a static dissolution system
Experimental: The samples were prepared as discs. Each disc was prepared by compressing the sample for 5 minutes at 2 tons of pressure. Each disc was transferred to a static dissolution system, whereby one surface of the disc is exposed to the dissolution medium. Six discs were prepared from each batch of material for duplicate intrinsic dissolution rate (IDR) determinations at pHs 2.2, 4.0 and 7.0. Dissolution samples (0.8 ml) were withdrawn at 5 minute intervals up to 60 minutes and samples were analysed. The amount of drug released (mg) is divided by the surface area of the disc (0.5 cm^2) to obtain an amount per unit area (mg cm^−2). The average of the duplicate determinations is plotted as a function of time (minutes). The IDR (mg cm^−2 minutes^−1) is given by the gradient (determined by linear regression) over the linear range of the release profile. When the dissolution into solution is deemed independent of pH, a pH independent IDR is calculated. The pH independent IDR is calculated by averaging the data for each time point at all of the pHs studied and calculating the linear regression on at least the first 5 data points. All IDR values are reported with the error encompassing the upper and lower 95% confidence limits of the linear regression. Linear regression analysis of the IDR data used all of the data points, as the release profiles are linear.

[2] = Particle size distribution; conditions: 5 kg batch
Experimental: The Particle Size Distribution (PDS) of renzapride is measured according to the method detailed below. [table] • Vibration feed rate: 40% • Air pressure: 3.5 Bar Single measurement of each batch performed in triplicate.

[3] = Dynamic vapour sorption (DVS), adsorption/desorption cycles between 0 and 90% RH
Excerpt: Each sample was placed into a sample pan and loaded into the DVS system. An initial weight reading was taken. The sample was then exposed to an atmosphere with a relative humidity (RH) of 0% to dry the sample and a dry weight reading taken. The sample was exposed to an adsorption/desorption cycle between 0 and 90% RH in 10% RH intervals. The change in weight data was fitted to an exponential expression that was used to automatically determine the end point of each stage, which then triggers the next increase/decrease in relative humidity. For the DVS traces, the stepped lines represent the relative humidity (RH) level in the Chamber. The curved line represents the weight change in the sample. The RH was controlled automatically and changes once the rate of change in weight of the sample is small.

[4] = Storage stability at 25° C./60% relative humidity; conditions: 25° C./60% RH
Experimental: Samples of Form II renzapride hydrochloride hydrate were placed in storage under conditions of 25° C./60% relative humidity.

IDR independent (pH independent IDR) ([1]; data averaged over all pHs studied, error = 95% confidence limits): 5.7 ± 0.3 mg/min/cm^2 | IDR pH 2.2 ([1]; pH 2.2, error = 95% confidence limits of linear regression): 5.5 ± 0.2 mg/min/cm^2 | IDR pH 4.0 ([1]; pH 4.0, error = 95% confidence limits of linear regression): 5.7 ± 0.2 mg/min/cm^2 | IDR pH 7.0 ([1]; pH 7.0, error = 95% confidence limits of linear regression): 5.9 ± 0.3 mg/min/cm^2 | Span = (d(0.9) − d(0.1))/d(0.5) [2]: 2.1 | d (0.1) [2]: 11.5 μm | d(0.5) [2]: 47.1 μm | d(0.9) [2]: 109.0 μm | moisture taken up at 90% RH (DVS) ([3]; chamber at 90% RH): ~9.5 % (w/w) | uptake in moisture at 10% RH (DVS) ([3]; exposure to 10% RH, initial uptake): ca. 9 % (w/w) | Description ([4]; t = 0 months): White | Water content (by Karl Fisher) ([4]; t = 0 months): 8.9%(w/w) | Description ([4]; t = 6 months): White | Water content (by Karl Fisher) ([4]; t = 6 months): 8.6%(w/w) | Description ([4]; t = 12 months): White | Water content (by Karl Fisher) ([4]; t = 12 months): 8.8%(w/w) | Description ([4]; t = 18 months): White | Water content (by Karl Fisher) ([4]; t = 18 months): 8.8%(w/w) | Description ([4]; t = 24 months): White | Water content (by Karl Fisher) ([4]; t = 24 months): 8.8%(w/w)
SMILES: COc1cc(N)c(Cl)cc1C(=O)NC1CCN2CCCC1C2.Cl (centres unmarked) [Form II, renzapride hydrochloride hydrate]
